In ChEMBL document CHEMBL5291721, “A preclinical secondary pharmacology resource illuminates target-adverse drug reaction associations of marketed drugs” (Nat Commun, 2023):

Legend:
Acetylcholinesterase = Acetylcholinesterase (Homo sapiens, UniProt P22303); format: functional
[1] = molecular target: T1, Alpha-2A adrenergic receptor (Homo sapiens, UniProt P08913)
T1 sequence (P08913 whole entry): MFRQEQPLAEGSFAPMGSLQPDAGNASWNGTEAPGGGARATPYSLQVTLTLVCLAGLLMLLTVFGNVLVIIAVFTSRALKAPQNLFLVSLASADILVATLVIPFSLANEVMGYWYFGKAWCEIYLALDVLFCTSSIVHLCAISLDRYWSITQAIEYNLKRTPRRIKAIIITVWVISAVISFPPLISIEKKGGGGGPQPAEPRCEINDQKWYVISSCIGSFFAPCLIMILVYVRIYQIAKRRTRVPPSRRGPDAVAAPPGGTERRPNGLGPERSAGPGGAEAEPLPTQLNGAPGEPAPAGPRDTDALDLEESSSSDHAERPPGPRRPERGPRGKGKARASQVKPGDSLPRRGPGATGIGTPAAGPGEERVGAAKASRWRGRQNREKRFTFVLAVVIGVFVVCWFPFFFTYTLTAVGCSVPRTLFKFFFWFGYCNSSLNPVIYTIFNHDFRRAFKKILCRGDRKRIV

D(1A) dopamine receptor = D(1A) dopamine receptor (Homo sapiens, UniProt P21728)
D(1A) dopamine receptor, sequence (P21728 whole entry): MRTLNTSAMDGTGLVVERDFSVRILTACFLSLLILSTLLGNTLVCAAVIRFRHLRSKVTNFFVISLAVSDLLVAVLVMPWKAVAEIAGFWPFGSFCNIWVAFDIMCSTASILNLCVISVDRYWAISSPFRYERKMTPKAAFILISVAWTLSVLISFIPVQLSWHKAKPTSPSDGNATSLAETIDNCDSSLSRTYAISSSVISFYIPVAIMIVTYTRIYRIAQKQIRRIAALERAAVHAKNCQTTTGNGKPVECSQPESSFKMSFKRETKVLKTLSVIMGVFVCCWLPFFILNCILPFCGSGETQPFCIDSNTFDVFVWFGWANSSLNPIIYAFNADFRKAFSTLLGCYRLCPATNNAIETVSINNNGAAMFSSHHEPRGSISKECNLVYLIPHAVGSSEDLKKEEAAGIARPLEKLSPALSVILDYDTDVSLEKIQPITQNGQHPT

D(3) dopamine receptor = D(3) dopamine receptor (Homo sapiens, UniProt P35462)
D(3) dopamine receptor, sequence (P35462 whole entry): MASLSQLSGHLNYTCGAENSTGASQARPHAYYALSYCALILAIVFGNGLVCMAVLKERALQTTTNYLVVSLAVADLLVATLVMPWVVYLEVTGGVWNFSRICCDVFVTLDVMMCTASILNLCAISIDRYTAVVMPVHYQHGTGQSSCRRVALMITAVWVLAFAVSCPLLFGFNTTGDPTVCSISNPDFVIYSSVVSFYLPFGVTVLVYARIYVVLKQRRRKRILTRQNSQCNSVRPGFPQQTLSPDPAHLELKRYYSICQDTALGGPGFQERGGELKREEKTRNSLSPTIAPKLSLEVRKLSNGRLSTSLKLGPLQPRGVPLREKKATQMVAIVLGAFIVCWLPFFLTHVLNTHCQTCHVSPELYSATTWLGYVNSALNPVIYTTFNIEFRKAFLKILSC

Prothrombin = Prothrombin (Homo sapiens, UniProt P00734); format: functional
Histamine H3 receptor = Histamine H3 receptor (Homo sapiens, UniProt Q9Y5N1)
[2] = molecular target: T2, 5-hydroxytryptamine receptor 1A (Homo sapiens, UniProt P08908)
T2 sequence (P08908 whole entry): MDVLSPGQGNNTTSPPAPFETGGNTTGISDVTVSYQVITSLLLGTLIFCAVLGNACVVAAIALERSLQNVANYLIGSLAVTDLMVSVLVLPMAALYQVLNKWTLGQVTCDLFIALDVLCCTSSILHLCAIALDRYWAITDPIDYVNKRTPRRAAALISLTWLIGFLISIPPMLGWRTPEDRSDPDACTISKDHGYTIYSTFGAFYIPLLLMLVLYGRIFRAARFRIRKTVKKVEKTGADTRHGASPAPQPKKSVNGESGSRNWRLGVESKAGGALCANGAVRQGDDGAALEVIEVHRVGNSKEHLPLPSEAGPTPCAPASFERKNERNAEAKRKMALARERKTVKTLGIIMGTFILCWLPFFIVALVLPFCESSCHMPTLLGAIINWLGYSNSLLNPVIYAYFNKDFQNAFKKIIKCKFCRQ

[3] = molecular target: 5-hydroxytryptamine receptor 2B (Homo sapiens, UniProt P41595); format: functional, cell-based
5-hydroxytryptamine receptor 2B, sequence (P41595 whole entry): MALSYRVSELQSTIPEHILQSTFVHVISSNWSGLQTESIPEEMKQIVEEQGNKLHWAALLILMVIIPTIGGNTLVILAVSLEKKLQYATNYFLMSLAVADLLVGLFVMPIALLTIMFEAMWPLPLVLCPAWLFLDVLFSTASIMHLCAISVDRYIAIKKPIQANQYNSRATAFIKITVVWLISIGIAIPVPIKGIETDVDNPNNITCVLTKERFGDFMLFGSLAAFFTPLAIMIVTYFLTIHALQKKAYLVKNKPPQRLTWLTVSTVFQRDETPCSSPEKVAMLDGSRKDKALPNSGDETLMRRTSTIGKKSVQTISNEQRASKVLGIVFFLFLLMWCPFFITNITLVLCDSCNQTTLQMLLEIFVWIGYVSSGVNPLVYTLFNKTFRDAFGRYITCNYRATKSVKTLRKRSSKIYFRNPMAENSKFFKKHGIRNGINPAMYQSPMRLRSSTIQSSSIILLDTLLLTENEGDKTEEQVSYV

[4] = molecular target: Voltage-gated inwardly rectifying potassium channel KCNH2 (Homo sapiens, UniProt Q12809); format: functional
Voltage-gated inwardly rectifying potassium channel KCNH2, sequence (Q12809 whole entry): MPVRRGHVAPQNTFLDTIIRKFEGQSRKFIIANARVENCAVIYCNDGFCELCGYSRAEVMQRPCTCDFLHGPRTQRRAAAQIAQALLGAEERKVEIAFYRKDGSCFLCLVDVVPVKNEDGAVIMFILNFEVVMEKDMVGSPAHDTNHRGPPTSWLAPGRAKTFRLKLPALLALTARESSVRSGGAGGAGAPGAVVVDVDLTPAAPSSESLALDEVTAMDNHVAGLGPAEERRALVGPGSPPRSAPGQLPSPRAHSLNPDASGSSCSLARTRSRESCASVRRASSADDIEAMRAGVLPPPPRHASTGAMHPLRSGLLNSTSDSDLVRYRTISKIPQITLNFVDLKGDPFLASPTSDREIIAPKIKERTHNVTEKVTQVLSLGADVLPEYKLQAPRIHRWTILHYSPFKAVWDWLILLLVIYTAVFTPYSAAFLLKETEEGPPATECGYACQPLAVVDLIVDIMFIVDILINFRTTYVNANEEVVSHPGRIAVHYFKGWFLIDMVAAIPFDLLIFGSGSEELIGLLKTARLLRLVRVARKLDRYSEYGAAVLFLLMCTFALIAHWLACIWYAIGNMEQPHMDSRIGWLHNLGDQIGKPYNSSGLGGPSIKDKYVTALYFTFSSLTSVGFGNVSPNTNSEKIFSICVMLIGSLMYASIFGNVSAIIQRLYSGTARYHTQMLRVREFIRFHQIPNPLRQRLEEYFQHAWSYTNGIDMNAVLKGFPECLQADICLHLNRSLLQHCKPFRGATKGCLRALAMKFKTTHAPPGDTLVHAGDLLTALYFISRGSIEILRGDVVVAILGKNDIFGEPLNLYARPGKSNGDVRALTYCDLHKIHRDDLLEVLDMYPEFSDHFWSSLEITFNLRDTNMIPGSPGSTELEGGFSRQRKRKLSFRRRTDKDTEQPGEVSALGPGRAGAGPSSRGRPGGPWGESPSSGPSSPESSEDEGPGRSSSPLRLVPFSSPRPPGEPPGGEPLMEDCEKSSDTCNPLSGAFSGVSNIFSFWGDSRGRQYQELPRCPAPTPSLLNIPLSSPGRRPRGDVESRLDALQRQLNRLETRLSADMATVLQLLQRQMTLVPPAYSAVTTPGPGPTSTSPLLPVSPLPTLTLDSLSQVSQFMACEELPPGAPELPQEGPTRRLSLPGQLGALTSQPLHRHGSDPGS

Mu-type opioid receptor = Mu-type opioid receptor (Homo sapiens, UniProt P35372)
Mu-type opioid receptor, sequence (P35372 whole entry): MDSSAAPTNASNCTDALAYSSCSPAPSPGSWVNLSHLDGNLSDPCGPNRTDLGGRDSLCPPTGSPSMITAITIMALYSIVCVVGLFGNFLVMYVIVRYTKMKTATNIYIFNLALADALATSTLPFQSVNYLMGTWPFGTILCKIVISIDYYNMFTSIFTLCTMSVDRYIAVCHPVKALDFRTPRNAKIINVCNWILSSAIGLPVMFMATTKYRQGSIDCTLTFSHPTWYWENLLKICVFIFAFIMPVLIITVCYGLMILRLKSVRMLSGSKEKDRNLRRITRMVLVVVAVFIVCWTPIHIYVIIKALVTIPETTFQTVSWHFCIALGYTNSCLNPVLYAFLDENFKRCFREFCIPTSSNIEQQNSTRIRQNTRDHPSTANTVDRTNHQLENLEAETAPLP

[5] = molecular target: 3',5'-cyclic-AMP phosphodiesterase 4A (Homo sapiens, UniProt P27815); format: functional
3',5'-cyclic-AMP phosphodiesterase 4A, sequence (P27815 whole entry): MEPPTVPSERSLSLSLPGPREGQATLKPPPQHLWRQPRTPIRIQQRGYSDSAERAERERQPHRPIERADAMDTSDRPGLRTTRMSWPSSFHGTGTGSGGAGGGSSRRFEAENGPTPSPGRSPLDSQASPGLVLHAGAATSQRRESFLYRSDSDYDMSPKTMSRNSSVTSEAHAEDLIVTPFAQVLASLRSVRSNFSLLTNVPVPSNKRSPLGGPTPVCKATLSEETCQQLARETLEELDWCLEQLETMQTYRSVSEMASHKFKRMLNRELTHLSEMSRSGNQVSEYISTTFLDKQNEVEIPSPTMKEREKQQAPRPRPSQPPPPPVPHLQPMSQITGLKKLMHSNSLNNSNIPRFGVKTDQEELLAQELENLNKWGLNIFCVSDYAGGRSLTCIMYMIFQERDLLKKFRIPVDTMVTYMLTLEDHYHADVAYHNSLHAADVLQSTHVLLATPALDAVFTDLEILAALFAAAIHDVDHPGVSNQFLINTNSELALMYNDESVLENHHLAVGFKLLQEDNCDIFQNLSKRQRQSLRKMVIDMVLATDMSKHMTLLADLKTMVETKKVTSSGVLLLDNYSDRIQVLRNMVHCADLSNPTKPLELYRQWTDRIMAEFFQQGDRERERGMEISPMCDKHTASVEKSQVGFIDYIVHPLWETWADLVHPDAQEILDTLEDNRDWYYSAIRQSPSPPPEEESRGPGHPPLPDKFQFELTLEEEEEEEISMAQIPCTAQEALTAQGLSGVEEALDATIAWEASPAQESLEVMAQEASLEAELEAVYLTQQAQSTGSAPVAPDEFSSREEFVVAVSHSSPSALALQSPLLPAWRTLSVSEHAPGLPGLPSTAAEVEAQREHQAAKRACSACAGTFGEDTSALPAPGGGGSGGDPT

Progesterone receptor = molecular target: T3, Progesterone receptor (Homo sapiens, UniProt P06401)
T3 sequence (P06401 whole entry): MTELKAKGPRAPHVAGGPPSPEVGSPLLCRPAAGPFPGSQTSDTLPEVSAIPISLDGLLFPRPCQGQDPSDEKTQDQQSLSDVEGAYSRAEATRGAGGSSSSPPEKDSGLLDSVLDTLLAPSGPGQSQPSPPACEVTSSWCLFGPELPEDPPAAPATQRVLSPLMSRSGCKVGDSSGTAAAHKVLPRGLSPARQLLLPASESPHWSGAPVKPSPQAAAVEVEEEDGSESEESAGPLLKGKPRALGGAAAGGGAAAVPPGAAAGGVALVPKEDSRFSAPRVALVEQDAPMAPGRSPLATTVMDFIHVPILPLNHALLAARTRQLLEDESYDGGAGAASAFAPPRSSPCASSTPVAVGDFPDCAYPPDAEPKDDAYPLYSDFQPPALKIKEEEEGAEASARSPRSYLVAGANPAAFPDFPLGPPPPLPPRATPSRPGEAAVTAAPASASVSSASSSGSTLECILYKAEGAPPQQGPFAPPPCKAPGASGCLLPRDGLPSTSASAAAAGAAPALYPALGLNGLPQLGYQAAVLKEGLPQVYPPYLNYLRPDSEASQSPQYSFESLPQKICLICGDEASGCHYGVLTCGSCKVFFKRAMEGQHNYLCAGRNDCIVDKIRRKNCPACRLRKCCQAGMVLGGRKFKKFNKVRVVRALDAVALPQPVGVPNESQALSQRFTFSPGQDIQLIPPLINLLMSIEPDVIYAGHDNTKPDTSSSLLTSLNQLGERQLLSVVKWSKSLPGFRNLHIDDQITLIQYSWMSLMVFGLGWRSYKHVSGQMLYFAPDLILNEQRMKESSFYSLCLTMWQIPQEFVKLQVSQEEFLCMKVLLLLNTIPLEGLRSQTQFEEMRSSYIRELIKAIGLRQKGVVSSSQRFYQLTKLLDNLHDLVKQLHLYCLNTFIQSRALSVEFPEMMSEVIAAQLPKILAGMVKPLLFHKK

[6] = molecular target: Prostaglandin G/H synthase 1 (Homo sapiens, UniProt P23219); format: functional
[7] = molecular target: Sodium-dependent noradrenaline transporter (Homo sapiens, UniProt P23975)
Sodium-dependent noradrenaline transporter, sequence (P23975 whole entry): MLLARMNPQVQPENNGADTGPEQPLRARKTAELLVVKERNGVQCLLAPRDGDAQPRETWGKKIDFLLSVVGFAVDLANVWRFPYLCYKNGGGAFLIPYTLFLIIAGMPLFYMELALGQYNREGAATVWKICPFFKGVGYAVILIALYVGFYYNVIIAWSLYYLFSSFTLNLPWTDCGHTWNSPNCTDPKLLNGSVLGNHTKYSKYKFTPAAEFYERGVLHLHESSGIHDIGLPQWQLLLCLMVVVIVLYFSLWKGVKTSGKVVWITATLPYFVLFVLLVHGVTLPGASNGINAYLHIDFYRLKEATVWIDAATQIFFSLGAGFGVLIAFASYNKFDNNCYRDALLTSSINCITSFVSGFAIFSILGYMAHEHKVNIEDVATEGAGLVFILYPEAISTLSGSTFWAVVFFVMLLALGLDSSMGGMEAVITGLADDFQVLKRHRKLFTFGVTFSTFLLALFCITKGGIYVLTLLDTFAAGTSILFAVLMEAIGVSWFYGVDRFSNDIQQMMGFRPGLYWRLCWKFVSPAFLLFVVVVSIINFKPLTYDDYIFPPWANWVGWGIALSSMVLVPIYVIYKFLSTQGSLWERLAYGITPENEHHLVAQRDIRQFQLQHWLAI

[8] = molecular target: Sodium-dependent dopamine transporter (Homo sapiens, UniProt Q01959)
Thromboxane A2 receptor [9] = molecular target: T4, Thromboxane A2 receptor (Homo sapiens, UniProt P21731); format: functional, cell-based
T4 sequence (P21731 whole entry): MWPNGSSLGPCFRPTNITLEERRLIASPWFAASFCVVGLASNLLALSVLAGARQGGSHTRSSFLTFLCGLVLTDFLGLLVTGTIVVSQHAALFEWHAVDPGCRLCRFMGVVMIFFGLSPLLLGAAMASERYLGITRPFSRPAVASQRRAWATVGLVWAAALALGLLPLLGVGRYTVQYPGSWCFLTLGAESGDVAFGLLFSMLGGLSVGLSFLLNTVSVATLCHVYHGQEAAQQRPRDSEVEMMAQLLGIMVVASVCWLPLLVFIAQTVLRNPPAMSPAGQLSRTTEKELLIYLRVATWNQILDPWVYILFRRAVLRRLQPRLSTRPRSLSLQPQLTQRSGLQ

Thromboxane A2 receptor [10] = molecular target: T4, Thromboxane A2 receptor; format: functional, cell-based; remark: listed apart in the source

Measured: AC50
Also: assay procedure not described here.

Acetylcholinesterase, sequence (P22303 whole entry): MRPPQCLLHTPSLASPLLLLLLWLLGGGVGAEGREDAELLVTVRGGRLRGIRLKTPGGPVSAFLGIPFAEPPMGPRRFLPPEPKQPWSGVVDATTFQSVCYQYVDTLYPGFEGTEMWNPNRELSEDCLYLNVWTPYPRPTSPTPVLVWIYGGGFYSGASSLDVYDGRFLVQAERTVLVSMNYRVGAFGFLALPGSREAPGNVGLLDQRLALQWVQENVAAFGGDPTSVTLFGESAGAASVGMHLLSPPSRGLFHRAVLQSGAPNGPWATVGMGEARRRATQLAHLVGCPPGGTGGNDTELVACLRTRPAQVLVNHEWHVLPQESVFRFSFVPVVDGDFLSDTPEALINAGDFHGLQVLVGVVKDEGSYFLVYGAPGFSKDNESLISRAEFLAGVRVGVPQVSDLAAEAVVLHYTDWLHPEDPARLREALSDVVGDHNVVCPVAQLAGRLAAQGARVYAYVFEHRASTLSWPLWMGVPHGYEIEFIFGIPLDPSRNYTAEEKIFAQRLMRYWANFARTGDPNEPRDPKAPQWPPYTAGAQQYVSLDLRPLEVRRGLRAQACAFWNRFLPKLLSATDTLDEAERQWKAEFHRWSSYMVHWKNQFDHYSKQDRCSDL

CN(C)c1ccc(O)c2c1C[C@H]1C[C@H]3[C@H](N(C)C)C(O)=C(C(N)=O)C(=O)[C@@]3(O)C(O)=C1C2=O [MINOCYCLINE]
> 30 µM: all assays above
